Source: US5854002A (Rhone Poulenc, Inc., priority 1996, dated 1998)
Read-outs that look alike come from different tables or passages of the source. Blank lines part the entries; values can stand above or below the compound they belong to.

Legend:
Drosophila Grd and LCCH3 [1] = biological target: T1, Drosophila Grd and LCCH3 (Drosophila melanogaster, UniProt Q08832+Q24352); test: [3H] muscimol radioligand binding assay, membranes of High Five cells co-infected with vBP8-Grd/vBP8-LCCH3
T1 construct: made in house; host or cells: High Five (Trichoplusia ni) cells, co-infected with vBP8-Grd and vBP8-LCCH3
T1 sequence (Q24352 59-686): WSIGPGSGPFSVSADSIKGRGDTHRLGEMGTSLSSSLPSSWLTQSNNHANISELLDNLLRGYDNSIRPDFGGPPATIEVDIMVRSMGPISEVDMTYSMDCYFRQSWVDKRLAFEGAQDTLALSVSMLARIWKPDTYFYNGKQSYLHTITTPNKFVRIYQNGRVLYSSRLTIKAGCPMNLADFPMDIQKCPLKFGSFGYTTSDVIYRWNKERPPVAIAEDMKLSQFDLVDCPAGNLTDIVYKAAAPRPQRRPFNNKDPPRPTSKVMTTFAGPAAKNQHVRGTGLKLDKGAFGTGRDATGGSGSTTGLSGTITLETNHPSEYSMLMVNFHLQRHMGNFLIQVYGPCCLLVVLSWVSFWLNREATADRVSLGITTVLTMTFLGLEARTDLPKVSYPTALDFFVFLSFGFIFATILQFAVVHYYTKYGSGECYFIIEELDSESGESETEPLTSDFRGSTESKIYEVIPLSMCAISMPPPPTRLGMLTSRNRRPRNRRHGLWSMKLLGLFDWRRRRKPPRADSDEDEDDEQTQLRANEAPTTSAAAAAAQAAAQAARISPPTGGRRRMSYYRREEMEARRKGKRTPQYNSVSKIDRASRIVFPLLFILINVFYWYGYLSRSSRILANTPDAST
T1 sequence (Q08832 21-496): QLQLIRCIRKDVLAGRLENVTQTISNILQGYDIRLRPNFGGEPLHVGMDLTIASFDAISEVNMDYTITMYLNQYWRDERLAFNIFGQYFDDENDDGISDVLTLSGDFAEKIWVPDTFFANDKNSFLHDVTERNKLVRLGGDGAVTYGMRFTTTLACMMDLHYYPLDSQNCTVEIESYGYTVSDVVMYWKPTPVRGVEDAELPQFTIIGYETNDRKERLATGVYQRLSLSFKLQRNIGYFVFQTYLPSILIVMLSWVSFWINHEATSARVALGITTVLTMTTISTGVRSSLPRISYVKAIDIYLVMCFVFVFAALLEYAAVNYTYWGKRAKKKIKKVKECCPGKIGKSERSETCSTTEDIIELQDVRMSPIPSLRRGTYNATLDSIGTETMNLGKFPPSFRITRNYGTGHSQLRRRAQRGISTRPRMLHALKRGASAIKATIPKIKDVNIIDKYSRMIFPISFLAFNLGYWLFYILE
Procedure: (§1) High Five™ cells (derived from the cabbage loper, Trichoplusia ni, Invitrogen Corp.) were infected with vBP8-Rdl, vBP8-LCCH3, or vBP8-Grd, either singly or in various combinations. Cells were harvested at 3 days post-infection in tubes of approximately 6×10^7 cells per tube, the cells were pelleted by centrifugation, the supernatants discarded, and the pellets immediately stored at -80° C. This amount of tissue is sufficient for one 96-well microtiter plate. Membranes were prepared by first thawing and then resuspending the cell pellet in 25 mL of 10 mM phosphate buffer pH 7.4. The cells were gently homogenized with five strokes in a glass/Teflon homogenizer and the membranes pelleted by centrifugation at 120,000 g for 30 minutes. The membrane pellet was resuspended in 25 mL of 10 mM phosphate buffer pH 7.4, re-pelleted as above, and the pellet finally resuspended in 3 mL of buffer. The protein concentration was determined by the Bradford method (Bradford (1976) Anal. Biochem. 79:248) and then adjusted to 625 μg of protein per mL of 10 mM PBS, pH 7.4.
The radioligand binding assays were composed of 200 μL membrane preparation (containing 125 μg protein), 100 μL of [^3 H] muscimol (to give a final concentration of 5 nM), 20 μL of unlabeled test compound, buffer or unlabeled muscimol, and 680 μL of 10 mM PBS, pH 7.4. […] The reactions were incubated for 90 minutes at 4° C., and then terminated by filtration through Whatman GF/B glass fiber filters. Filters were washed with two 5 mL aliquots of cold buffer, and the radioactivity remaining on the filters was determined by liquid scintillation. Multiple assays were performed to test numerous compounds.

Housefly heads = conditions: from Lunt et al. (1985), cited from earlier work; for IC50: half-maximal displacement of [3H] muscimol, read-out: IC50, Fly Heads
Rat brain = test: [3H] muscimol binding, rat brain (previous assays of the inventors); conditions: previous assays by the inventors; for IC50: half-maximal displacement of [3H] muscimol
Source text: Data from fly heads and rat brains were obtained as described in Table 2.

Drosophila Rdl = biological target: T2, Drosophila Rdl (Drosophila melanogaster, UniProt P25123); test: [3H] muscimol radioligand binding assay, membranes of High Five cells infected with vBP8-Rdl
T2 construct: excised the full-length cDNA encoding Rdl; made in house; host or cells: High Five (Trichoplusia ni) cells, baculovirus vBP8-Rdl
T2 sequence (P25123 45-606): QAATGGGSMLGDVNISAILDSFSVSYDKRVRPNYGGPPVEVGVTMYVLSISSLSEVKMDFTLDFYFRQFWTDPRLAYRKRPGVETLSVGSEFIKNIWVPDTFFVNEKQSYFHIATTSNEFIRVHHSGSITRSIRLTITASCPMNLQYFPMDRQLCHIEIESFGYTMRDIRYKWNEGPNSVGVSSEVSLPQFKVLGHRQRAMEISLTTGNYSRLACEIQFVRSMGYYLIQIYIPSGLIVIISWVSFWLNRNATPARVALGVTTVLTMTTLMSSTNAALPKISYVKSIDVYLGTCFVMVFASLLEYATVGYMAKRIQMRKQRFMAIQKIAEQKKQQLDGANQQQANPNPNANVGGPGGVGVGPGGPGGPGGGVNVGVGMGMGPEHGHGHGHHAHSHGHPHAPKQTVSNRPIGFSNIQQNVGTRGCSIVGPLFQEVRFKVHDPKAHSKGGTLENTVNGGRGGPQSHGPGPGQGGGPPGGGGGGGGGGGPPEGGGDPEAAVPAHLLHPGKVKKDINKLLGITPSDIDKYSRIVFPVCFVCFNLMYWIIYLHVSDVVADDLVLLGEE
Procedure: as §1
(§2) The reactions were incubated for 90 minutes at 4° C., and then terminated by filtration through Whatman GF/B glass fiber filters. Filters were washed with two 5 mL aliquots of cold buffer, and the radioactivity remaining on the filters was determined by liquid scintillation. Multiple assays were performed to test numerous compounds.

[2] = biological target: T3, Drosophila Rdl, Grd and LCCH3 (Drosophila melanogaster, UniProt P25123+Q08832+Q24352); test: [3H] muscimol radioligand binding assay, membranes of High Five cells infected with vBP8-Grd/vBP8-LCCH3/vBP8-Rdl
T3 construct: excised the full-length cDNA encoding Rdl; made in house; host or cells: High Five (Trichoplusia ni) cells, co-infected with vBP8-Grd, vBP8-LCCH3 and vBP8-Rdl
T3 sequence (P25123 45-606): T2 sequence (P25123 45-606)
T3 sequence (Q24352 59-686): T1 sequence (Q24352 59-686)
T3 sequence (Q08832 21-496): T1 sequence (Q08832 21-496)
Procedure: as §1, §2

Human α1 and rat β2 = biological target: T4, Human α1 and rat β2 (UniProt P14867+P63138); test: [3H] muscimol radioligand binding assay, positive control receptor expressed in insect cells; conditions: [3H] muscimol 5 nM, insect cell membranes
T4 construct: made in house; host or cells: insect cells, baculoviruses vEV-humα1 and vEV-ratβ2

Drosophila Grd = biological target: T5, Drosophila Grd (Drosophila melanogaster, UniProt Q24352); test: [3H] muscimol radioligand binding assay, membranes of High Five cells infected with vBP8-Grd; conditions: High Five cell membranes
T5 construct: made in house; host or cells: High Five (Trichoplusia ni) cells, baculovirus vBP8-Grd
T5 sequence (Q24352 59-686): T1 sequence (Q24352 59-686)
Procedure: as §1, with “The membrane pellet was resuspended in 25 mL of 10 mM phosphate buffer pH 7.4, re-pelleted as above, and the pellet finally resuspended in 3 mL of buffer.” left out
(§3) The radioligand binding assays were composed of 200 μL membrane preparation (containing 125 μg protein), 100 μL of [^3 H] muscimol (to give a final concentration of 5 nM), 20 μL of unlabeled test compound, buffer or unlabeled muscimol, and 680 μL of 10 mM PBS, pH 7.4. […] Filters were washed with two 5 mL aliquots of cold buffer, and the radioactivity remaining on the filters was determined by liquid scintillation. […]

Drosophila LCCH3 = biological target: T6, Drosophila LCCH3 (Drosophila melanogaster, UniProt Q08832); test: [3H] muscimol radioligand binding assay, membranes of High Five cells infected with vBP8-LCCH3; conditions: High Five cell membranes
T6 construct: made in house; host or cells: High Five (Trichoplusia ni) cells, baculovirus vBP8-LCCH3
T6 sequence (Q08832 21-496): T1 sequence (Q08832 21-496)
Procedure: as §1, with “The membrane pellet was resuspended in 25 mL of 10 mM phosphate buffer pH 7.4, re-pelleted as above, and the pellet finally resuspended in 3 mL of buffer.” left out
as §3

Drosophila Grd and LCCH3 [3] = biological target: T1, Drosophila Grd and LCCH3; test: [3H] muscimol radioligand binding assay, membranes of High Five cells co-infected with vBP8-Grd/vBP8-LCCH3; remark: listed apart in the source
[4] = half-maximal displacement of [3H] muscimol, read-out: IC50, Grd/LCCH3
[5] = half-maximal displacement of [3H] muscimol, read-out: IC50, Rdl
[6] = [3H] muscimol 5 nM, High Five cell membranes, non-specific = 10 μM GABA
[7] = [3H] muscimol 5 nM, non-specific = 10 μM GABA
[8] = [3H] muscimol saturation binding
[9] = [3H] muscimol saturation binding, High Five cell membranes

T4 sequence (P14867 28-456): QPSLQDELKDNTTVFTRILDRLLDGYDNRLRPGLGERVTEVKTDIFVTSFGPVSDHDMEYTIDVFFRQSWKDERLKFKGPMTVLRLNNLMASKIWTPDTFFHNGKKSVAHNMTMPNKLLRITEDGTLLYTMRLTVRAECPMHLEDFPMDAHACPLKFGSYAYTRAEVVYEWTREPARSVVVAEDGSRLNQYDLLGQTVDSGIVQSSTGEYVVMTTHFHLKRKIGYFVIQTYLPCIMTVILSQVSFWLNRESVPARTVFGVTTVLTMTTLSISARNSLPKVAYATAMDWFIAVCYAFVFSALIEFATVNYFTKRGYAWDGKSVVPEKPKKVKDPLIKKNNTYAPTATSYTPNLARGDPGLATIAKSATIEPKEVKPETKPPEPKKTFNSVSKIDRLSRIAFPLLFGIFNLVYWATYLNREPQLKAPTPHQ
T4 sequence (P63138 25-474 limits assumed): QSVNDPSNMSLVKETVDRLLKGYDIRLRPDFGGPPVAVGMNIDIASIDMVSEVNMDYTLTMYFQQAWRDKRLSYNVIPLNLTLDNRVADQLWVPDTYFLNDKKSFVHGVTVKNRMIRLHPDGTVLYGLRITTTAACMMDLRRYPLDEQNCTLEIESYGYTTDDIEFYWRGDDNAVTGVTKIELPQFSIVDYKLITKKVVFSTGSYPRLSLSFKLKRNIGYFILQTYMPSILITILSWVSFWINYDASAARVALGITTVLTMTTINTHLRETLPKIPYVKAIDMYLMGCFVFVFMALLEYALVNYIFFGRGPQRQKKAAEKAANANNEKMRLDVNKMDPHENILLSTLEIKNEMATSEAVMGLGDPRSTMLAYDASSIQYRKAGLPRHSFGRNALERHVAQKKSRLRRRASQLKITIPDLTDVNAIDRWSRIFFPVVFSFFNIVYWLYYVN

Structure (SMILES): O=C(O)C1=CCNCC1 [Isoguavacine]
IC50 (Drosophila Grd and LCCH3 [1]; [4]): 0.19 µM | IC50 (Housefly heads): 0.1 µM | IC50 (Rat brain): 0.289 µM | IC50 (Drosophila Rdl; [5]): 0.26 µM

IC50 (Drosophila Grd and LCCH3 [1]; [4]): 2.68 µM | IC50 (Rat brain): 1.43 µM | IC50 (Drosophila Rdl; [5]): 1.7 µM
Structure (SMILES): O=C(O)C1CCNCC1 [Isonipecotic acid]

Structure (SMILES): NCc1cc(=O)[nH]o1 [Muscimol]
IC50 (Drosophila Grd and LCCH3 [1]; [4]): 0.015 µM | IC50 (Housefly heads): 0.03 µM | IC50 (Rat brain): 0.043 µM | IC50 ([2]; half-maximal displacement of [3H] muscimol): 0.023 µM | IC50 (Drosophila Rdl; [5]): 0.012 µM

IC50 (Drosophila Grd and LCCH3 [1]; [4]): > 1000 µM | IC50 (Drosophila Rdl; [5]): > 1000 µM
Structure (SMILES): O=S(=O)(O)C1CCNCC1 [Piperidine-4-sulfonate]

Structure (SMILES): CP(=O)(O)CCCN [SKF-97541]
IC50 (Drosophila Grd and LCCH3 [1]): > 1000 µM | IC50 (Rat brain): > 1000 µM | IC50 (Drosophila Rdl): > 1000 µM

Structure (SMILES): NCc1cc(O)no1 [[^3 H] muscimol]
% Specific Binding (Drosophila Grd and LCCH3 [1]; [6]): 85% | specific binding of [3H]muscimol (Drosophila Grd and LCCH3 [1]; cells 3 days after co-infection with vBP8-Grd and vBP8-LCCH3): High levels of specific binding | Kd (Housefly heads; housefly heads): 0.04 µM | % Specific Binding (Human α1 and rat β2): 80% | % Specific Binding (Drosophila Grd; [7]): 10% | Kd (Drosophila Grd; [8]): > 10 µM | Kd (Rat brain; rat brain): 0.028 µM | % Specific Binding (Drosophila LCCH3; [7]): 10% | Kd (Drosophila LCCH3; [8]): > 10 µM | Bmax ([2]; High Five cell membranes): 0.64 pmol [3H] muscimol bound per m | % Specific Binding [2, 6]: 60% | Kd [2, 9]: 0.038 µM | Bmax (Drosophila Rdl; High Five cell membranes): 0.11 pmol [3H] muscimol bound per m | % Specific Binding (Drosophila Rdl; [6]): 55% | Kd (Drosophila Rdl; [9]): 0.012 µM | maximum number of binding sites (Bmax) relative to vBP8-Rdl-infected cells (Drosophila Grd and LCCH3 [3]; Grd/LCCH3 co-infected versus Rdl-infected cells): 15 fold | Bmax (Drosophila Grd and LCCH3 [3]; High Five cell membranes): 1.85 pmol [3H] muscimol bound per m | Kd (Drosophila Grd and LCCH3 [3]; [9]): 0.012 µM

IC50 (Drosophila Grd and LCCH3 [1]; [4]): 1.62 µM | IC50 (Rat brain): > 1000 µM | IC50 (Drosophila Rdl; [5]): 2.91 µM
Structure (SMILES): NC/C=C\C(=O)O [cis-4-amino-crotonic acid]
